In ChEMBL document CHEMBL5143637, “Design, synthesis and antibacterial activity against pathogenic mycobacteria of conjugated hydroxamic acids, hydrazides and O-alkyl/O-acyl protected hydroxamic derivatives” (Bioorg Med Chem Lett, 2022):
≈ marks a conversion by molar mass, not a printed value.

Tests used:
[1] = Cytotoxicity against C57BL/6 mouse BMDM cells assessed as reduction in cell viability measured after 24 hrs by resazurin dye based assay; format: toxicity; settings: C57BL/6, mouse, BMDM cells (bone marrow-derived macrophages)
[2] = system: Mycobacterium marinum; assay: Antimycobacterial activity against Mycobacterium marinum ATCC BAA-535/M assessed as inhibition of mycobacterial growth incubated for 10 to 14 days by resazurin microtiter assay; format: functional; settings: time 10-14 day
[3] = system: Mycobacterium tuberculosis; assay: Antimycobacterial activity against Mycobacterium tuberculosis mc2 6230 assessed as inhibition of mycobacterial growth incubated for 10 to 14 days by resazurin microtiter assay; format: functional; settings: time 10-14 day
[4] = system: Mycobacteroides abscessus; assay: Antimycobacterial activity against Mycobacterium abscessus CIP104536T with rough morphotype assessed as inhibition of mycobacterial growth incubated for 3 to 5 days by resazurin microtiter assay; format: functional; settings: time 3-5 day
[5] = system: Mycobacteroides abscessus; assay: Antimycobacterial activity against Mycobacterium abscessus CIP104536T with smooth morphotype assessed as inhibition of mycobacterial growth incubated for 3 to 5 days by resazurin microtiter assay; format: functional; settings: time 3-5 day

SMILES | CC50 at 24 h [1] [µg/mL] | MIC50 [2] [µg/mL] | MIC90 [2] [µg/mL] | MIC50 [3] [µg/mL] | MIC90 [3] [µg/mL] | MIC50 [4] [µg/mL] | MIC50 [5] [µg/mL] | MIC90 [4] [µg/mL] | MIC90 [5] [µg/mL]
CCCCCCCCCC(=O)ONC(=O)/C=C/C=C/c1ccc(F)cc1 | > 125 | 13.2 (≈ 36.5 µM) | 17.3 (≈ 47.9 µM) | 20.3 (≈ 56.2 µM) | 34.7 (≈ 96 µM) | > 100 | > 100 |  | 
CCCCOc1ccc(/C=C/C=C/C(=O)NN)cc1 | 65 (≈ 250 µM) | > 100 |  | > 100 |  | > 100 | > 100 |  | 
NNC(=O)/C=C/C=C/c1ccc(F)cc1 | > 125 | 20.6 (≈ 99.9 µM) | > 100 | 27.4 (≈ 133 µM) | > 100 | > 100 | > 100 |  | 
O=C(/C=C/c1ccc2c(c1)OCO2)NO | 34 (≈ 164 µM) | > 100 |  | 31.9 (≈ 154 µM) | > 100 | > 100 | > 100 |  | 
NNC(=O)/C=C/c1ccc(F)cc1 | < 10 | 60.5 (≈ 336 µM) | 80.4 (≈ 446 µM) | > 100 |  | > 100 | > 100 |  | 
O=C(/C=C/C=C/c1ccc(-c2ccccc2)cc1)NO | > 125 | > 100 |  | > 100 |  | 6.9 (≈ 26 µM) | 31.8 (≈ 120 µM) | 7.5 (≈ 28.3 µM) | > 100
O=C(CCc1ccccc1)NO | 95 (≈ 575 µM) | 11.9 (≈ 72 µM) | 89.3 (≈ 541 µM) | > 100 |  | > 100 | > 100 |  | 
CCCCCCCOc1ccc(/C=C/C=C/C(=O)NO)cc1 | 67 (≈ 221 µM) | 48.3 (≈ 159 µM) | 68.3 (≈ 225 µM) | > 100 |  | > 100 | > 100 |  | 
NNC(=O)/C=C/c1ccc2c(c1)OCO2 | 123 (≈ 597 µM) | > 100 |  | > 100 |  | > 100 | > 100 |  | 
CCCCCCCOc1ccc(/C=C/C=C/C(=O)NN)cc1 | 64 (≈ 212 µM) | > 100 |  | 27 (≈ 89.3 µM) | 29.1 (≈ 96.2 µM) | 9.7 (≈ 32.1 µM) | 26.6 (≈ 88 µM) | 26.1 (≈ 86.3 µM) | > 100
O=C(/C=C/C=C/c1ccc(C(F)(F)F)cc1)NO | < 10 | > 100 |  | 28.8 (≈ 112 µM) | 80.6 (≈ 313 µM) | 5.5 (≈ 21.4 µM) | > 100 | 10.9 (≈ 42.4 µM) | 
COc1ccc(/C=C/C=C/C(=O)NN)cc1 | 120 (≈ 550 µM) | 12.6 (≈ 57.7 µM) | 13.3 (≈ 60.9 µM) | 18.1 (≈ 82.9 µM) | 46.7 (≈ 214 µM) | > 100 | > 100 |  | 
CCCCOc1ccc(/C=C/C=C/C(=O)NO)cc1 | > 125 | > 100 |  | 38.6 (≈ 148 µM) | > 100 | > 100 | 27.2 (≈ 104 µM) |  | 59.3 (≈ 227 µM)
O=C(/C=C/C=C/c1ccncc1)NO | < 10 | 26.9 (≈ 141 µM) | > 100 | 19.4 (≈ 102 µM) | 27.6 (≈ 145 µM) | > 100 | > 100 |  | 
O=C(/C=C/c1ccc(C(F)(F)F)cc1)NO | < 10 | 14.1 (≈ 61 µM) | > 100 | 14.4 (≈ 62.3 µM) | > 100 | 6.3 (≈ 27.3 µM) | 37.2 (≈ 161 µM) | 21.9 (≈ 94.7 µM) | 39.6 (≈ 171 µM)
COc1ccc(/C=C/C(=O)NO)cc1 | < 10 | 58.2 (≈ 301 µM) | 89.5 (≈ 463 µM) | 23.1 (≈ 120 µM) | 24.3 (≈ 126 µM) | > 100 | > 100 |  | 
CCCCCC(=O)ONC(=O)/C=C/C=C/c1ccc(F)cc1 | < 10 | 19.8 (≈ 64.8 µM) | 92.9 (≈ 304 µM) | 21.6 (≈ 70.7 µM) | 40.7 (≈ 133 µM) | > 100 | > 100 |  | 
O=C(/C=C/C=C/c1cccc(C(F)(F)F)c1)NO | < 10 | 10.1 (≈ 39.3 µM) | > 100 | 50.5 (≈ 196 µM) | > 100 | 4.4 (≈ 17.1 µM) | 52.3 (≈ 203 µM) | 7 (≈ 27.2 µM) | > 100
O=C(/C=C/C=C/c1cccc(F)c1)NO | < 10 | 7.5 (≈ 36.2 µM) | 39.3 (≈ 190 µM) | 7.6 (≈ 36.7 µM) | > 100 | 6 (≈ 29 µM) | 36.8 (≈ 178 µM) | 19 (≈ 91.7 µM) | > 100
COc1ccc(/C=C/C=C/C(=O)NO)cc1 | < 10 | 14.8 (≈ 67.5 µM) | 62.1 (≈ 283 µM) | 48 (≈ 219 µM) | > 100 | > 100 | > 100 |  | 

SMILES | CC50 at 24 h [1] [µg/mL] | MIC50 [2] [µg/mL] | MIC90 [2] [µg/mL] | MIC50 [3] [µg/mL] | MIC90 [3] [µg/mL] | MIC50 [4] [µg/mL] | MIC50 [5] [µg/mL] | MIC90 [4] [µg/mL] | MIC90 [5] [µg/mL]
O=C(/C=C/c1ccc(F)cc1)NO | < 10 | 3.5 (≈ 19.3 µM) | 23.9 (≈ 132 µM) | 47.3 (≈ 261 µM) | 55.4 (≈ 306 µM) | > 100 | > 100 |  | 
O=C(/C=C/c1ccccc1)NO | < 10 | 6.7 (≈ 41.1 µM) | 32.4 (≈ 199 µM) | 28.8 (≈ 176 µM) | 40.7 (≈ 249 µM) | > 100 | > 100 |  | 
O=C(/C=C/c1cccc(C(F)(F)F)c1)NO | < 10 | 7.1 (≈ 30.7 µM) | 47.7 (≈ 206 µM) | 12.8 (≈ 55.4 µM) | > 100 | 7.8 (≈ 33.7 µM) | 72.5 (≈ 314 µM) | 16 (≈ 69.2 µM) | 74.8 (≈ 324 µM)
NNC(=O)/C=C/C=C/c1ccc(C(F)(F)F)cc1 | > 125 | > 100 |  | 23.7 (≈ 92.5 µM) | > 100 | 5.7 (≈ 22.2 µM) | > 100 | 19.4 (≈ 75.7 µM) | 
CCCCCC(=O)ONC(=O)/C=C/C=C/c1ccc(OC)cc1 | < 10 | 26.8 (≈ 84.4 µM) | 54.5 (≈ 172 µM) | 13.8 (≈ 43.5 µM) | 22.9 (≈ 72.2 µM) | > 100 | > 100 |  | 
NNC(=O)/C=C/c1cccc(C(F)(F)F)c1 | > 125 | > 100 |  | 40.5 (≈ 176 µM) | 65.7 (≈ 285 µM) | 51.4 (≈ 223 µM) | > 100 | 55.7 (≈ 242 µM) | 
CCCCCCCCCCOc1ccc(/C=C/C=C/C(=O)NO)cc1 | > 125 | > 100 |  | > 100 |  | > 100 | > 100 |  | 
O=C(/C=C/C=C/c1ccc(F)cc1)NO | < 10 | 18.1 (≈ 87.4 µM) | > 100 | > 100 |  | > 100 | > 100 |  | 
CCCCCC(=O)ONC(=O)/C=C/c1ccc(OC)cc1 | > 125 | 21.2 (≈ 72.8 µM) | 46.7 (≈ 160 µM) | 32.8 (≈ 113 µM) | 61.4 (≈ 211 µM) | > 100 | 63 (≈ 216 µM) |  | 76.5 (≈ 263 µM)
CCCCCCONC(=O)/C=C/C=C/c1ccc(F)cc1 | > 125 | 37.1 (≈ 127 µM) | > 100 | > 100 |  | > 100 | > 100 |  | 
CCCC(=O)ONC(=O)/C=C/C=C/c1ccc(F)cc1 | > 125 | 7.9 (≈ 28.5 µM) | 22.4 (≈ 80.8 µM) | 11.9 (≈ 42.9 µM) | 59.3 (≈ 214 µM) | > 100 | > 100 |  | 
O=C(/C=C/c1cccc(F)c1)NO | < 10 | 3.3 (≈ 18.2 µM) | 25.9 (≈ 143 µM) | 13.5 (≈ 74.5 µM) | > 100 | 7.6 (≈ 42 µM) | 12.2 (≈ 67.3 µM) | 68.4 (≈ 378 µM) | > 100
NNC(=O)/C=C/c1cccc(F)c1 | > 125 | 41.1 (≈ 228 µM) | > 100 | 65.8 (≈ 365 µM) | > 100 | > 100 | > 100 |  | 
O=C(/C=C/c1ccc(-c2ccccc2)cc1)NO | 16 (≈ 66.9 µM) | 20.8 (≈ 86.9 µM) | 68.6 (≈ 287 µM) | 20.6 (≈ 86.1 µM) | > 100 | > 100 | > 100 |  | 
NNC(=O)/C=C/c1ccc(C(F)(F)F)cc1 | > 125 | > 100 |  | 20.4 (≈ 88.6 µM) | 44.2 (≈ 192 µM) | 46 (≈ 200 µM) | > 100 | 46.8 (≈ 203 µM) | 
O=C(/C=C/C=C/c1ccccc1)NO | < 10 | 14.9 (≈ 78.7 µM) | 91.4 (≈ 483 µM) | > 100 |  | > 100 | > 100 |  | 
NNC(=O)/C=C/C=C/c1cccc(F)c1 | > 125 | > 100 |  | > 100 |  | > 100 | > 100 |  | 
O=C(/C=C/c1ccncc1)NO | < 10 | 75 (≈ 457 µM) | > 100 | 35.1 (≈ 214 µM) | 42.9 (≈ 261 µM) | > 100 | > 100 |  | 
CCCCCCCCc1ccc(/C=C/C=C/C(=O)NO)cc1 | < 10 | 49.4 (≈ 164 µM) | > 100 | > 100 |  | > 100 | > 100 |  | 
